System: MCF-7 xenograft
Assay: RPPA of protein expression, MCF-7 xenograft endpoint analysis
Assay type: in vivo, nude mice
Details: 4 mg/kg/day vs. PBS
Protocol: Frozen xenograft tissue samples were embedded in OCT, and 8 μm sections were obtained using a cryostat. […] The resulting whole tissue lysates were boiled for 8 min at 100° C. and then printed onto a nitrocellulose slide (Avid, Grace Biolabs) along with a BSA protein concentration curve to estimate total protein concentration in each lysate. Total protein levels were assessed in each sample by staining with Sypro Ruby Protein Blot Stain (Invitrogen) according to manufacturer's instructions.
The total protein concentration in each sample was estimated by printing onto a nitrocellulose slide along with a BSA standard concentration curve, and total protein levels were assessed by staining with Sypro Ruby Protein Blot Stain (Invitrogen) according to manufacturer's instructions. Tissue lysates were diluted to 250 μg/ml in extraction buffer and stored at −80° C. prior to printing of arrays. RPPA printing and analysis of xenograft samples was conducted as previously described (Wulfkuhle et al., Clin Cancer Res. 2012; 18:6426-35). Antibody staining intensities were quantified using the MicroVigene v5 Software Package (Vigenetech). Signaling pathway activation was evaluated by staining the arrays with 156 antibodies against signaling endpoints, mainly phosphorylated and cleaved protein products. Before use for RPPA analysis, antibody specificity was confirmed by Western blot and analysis as previously described (Wulfkuhle et al., Clin Cancer Res. 2012; 18:6426-35).

[1] = *separate RPPA analysis, separate β actin probe

## CCCCCCNC(=N)NC(=N)NCc1ccccc1 [HBB, N1-hexyl-N5-benzyl-biguanide]
  fold change: 4EBP1 S65: 1.051
  fold change: 4EBP1 T37/46: 1.261
  fold change: 4EBP1 T70: 0.595
  fold change: A-Raf S299: 0.862
  fold change: AKT S473: 1.042
  fold change: AKT T308: 0.793
  fold change: ALK: 1.079
  fold change: ALK Y1604: 0.954
  fold change: AMPKalpha S485: 1.126
  fold change: AMPKbeta S108: 0.665
  fold change: ATF2 T69/71: 0.713
  fold change: ATM S1981: 1.034
  fold change: ATP CItrate Lyase S454: 1.000
  fold change: ATR S428: 0.810
  fold change: AXL: 0.566
  fold change: Acetyl-CoA Carboxylase S79: 0.927
  fold change: Actin beta: 1.000
  fold change: Aurora A T288/B T232/C T198: 0.646
  fold change: B-RAF: 1.130
  fold change: B-Raf S445: 0.764
  fold change: BAD: 2.424
  fold change: BAD S112: 0.833
  fold change: BAD S136: 0.958
  fold change: BCL-2: 0.825
  fold change: BIM: 0.727
  fold change: Bak: 0.789
  fold change: Bax: 0.807
  fold change: Bcl_xL: 0.909
  fold change: Beclin 1: 0.881
  fold change: CREB S133: 0.626
  fold change: Chk1 S345: 1.290
  fold change: Cl Caspase 3 D175: 1.109
  fold change: Cl Caspase 9 D315: 1.151
  fold change: Cl Caspase 9 D330: 1.244
  fold change: Cleaved PARP D214: 1.277
  fold change: Cofilin S3: 0.443
  fold change: CrkL Y207: 0.962
  fold change: Cyclin A: 1.779
  fold change: Cyclin B1 V152: 1.197
  fold change: Cyclin D1 (G124-326): 1.277
  fold change: Cyclin D1 T286: 0.611
  fold change: E-Cadherin: 0.669
  fold change: EGFR: 0.857
  fold change: EGFR Y992: 0.803
  fold change: EGFR Y1068: 1.089
  fold change: EGFR Y1148: 0.891
  fold change: EGFR Y1173: 0.954
  fold change: ER TOTAL: 1.687
  fold change: ER alpha S118: 0.964
  fold change: ERK 1-2 T202/Y204: 0.423
  fold change: ERK TOTAL: 0.791
  fold change: Elk S383: 1.402
  fold change: Ephrin A3 Y799/A4 Y799/A5 Y833: 1.149
  fold change: ErbB2/HER2 Y877: 0.951
  fold change: ErbB2/HER2 Y1248: 1.239
  fold change: ErbB3/HER3: 0.851
  fold change: ErbB3/HER3 Y1197: 1.223
  fold change: ErbB3/HER3 Y1289: 1.268
  fold change: FADD S194: 0.672
  fold change: FAK Y576/577: 1.021
  fold change: FKHR T24/FKHRL1 T32: 0.698
  fold change: FKHRL1 S253: 0.960
  fold change: FOXO1 S256: 0.854
  fold change: GRB2: 0.830
  fold change: GSK-3alpha/beta S21/9: 0.791
  fold change: HIF-1 alpha: 2.406
  fold change: HSP27 S82: 0.877
  fold change: HSP70: 1.453
  fold change: HSP90a T5/7: 0.945
  fold change: Heregulin: 20.774
  fold change: Histone H3 S28: 0.898
  fold change: IGF1R Y1135/36-IR Y1150/51: 1.101
  fold change: IGF-1R Y1131/IR Y1146: 1.019
  fold change: IGFBP7: 0.992
  fold change: IL6: 1.260
  fold change: IRS1: 1.014
  fold change: IRS-1 S612: 0.952
  fold change: IkappaB-alpha S32/36: 1.130
  fold change: Insulin Receptor Beta: 1.261
  fold change: Jak2 Y1007: 0.881
  fold change: KI67: 0.731
  fold change: LC3B: 1.097
  fold change: LIMK1 T508/LIMK2 T505: 0.795
  fold change: LKB1 S428: 1.269
  fold change: MARCKS S152/156: 1.071
  fold change: MCSFR Y723: 1.228
  fold change: MDM2 S166: 0.868
  fold change: MEK 1/2 S217/221: 0.770
  fold change: Met Y1234/1235: 1.033
  fold change: Musashi: 0.898
  fold change: NF-kappaB p65 S536: 0.817
  fold change: PAK1 S199/204-PAK2 S192/197: 1.221
  fold change: PAK1 T423/PAK2 T402: 1.028
  fold change: PDGFR alpha Y754: 1.144
  fold change: PDGFR beta: 0.705
  fold change: PDGFR beta Y716: 0.887
  fold change: PDK1 S241: 0.712
  fold change: PDL1: 34.857
  fold change: PKA C T197: 0.907
  fold change: PKC delta/theta S643/S676: 0.671
  fold change: PLK1 T210: 1.018
  fold change: PTEN: 0.726
  fold change: PTEN S380: 0.783
  fold change: PUMA: 0.919
  fold change: RAS TOTAL: 1.543
  fold change: Ras_GRF1: 1.021
  fold change: Rb S780: 0.674
  fold change: Ret Y905: 0.810
  fold change: Ros Y2274: 1.201
  fold change: S6 Ribosomal Protein S240/244: 0.817
  fold change: SAPK/JNK T183/Y185: 1.033
  fold change: SGK1 S78: 1.318
  fold change: SMAD2 S245/250/255: 0.760
  fold change: STAT3 S727: 1.040
  fold change: Shc Y317: 0.792
  fold change: Smad1 Ser463/465-Smad5 Ser463/465-Smad9 Ser465/467: 0.900
  fold change: Src Y527: 0.675
  fold change: Src family Y416: 0.471
  fold change: Stat 1 Y701: 0.937
  fold change: Stat3 Y705: 0.936
  fold change: Stat 5 Y694: 0.558
  fold change: TGF-beta: 0.952
  fold change: TNF alpha: 1.186
  fold change: Tuberin/TSC2 Y1571: 1.208
  fold change: VEGFR2 Y996: 0.828
  fold change: Vimentin: 0.896
  fold change: XIAP: 0.835
  fold change: c-Abl T735: 0.776
  fold change: c-Abl Y245: 0.846
  fold change: c-ErbB2/HER2: 1.938
  fold change: c-Kit Y703: 4.550
  fold change: c-Met TOTAL: 0.877
  fold change: c-Myc: 0.879
  fold change: c-Raf S338: 1.016
  fold change: eIF4G S1108: 0.791
  fold change: eNOS/NOS III S116: 0.902
  fold change: mTOR S2448: 1.034
  fold change: p27 Kip1: 0.925
  fold change: p27 T187: 0.685
  fold change: p38 MAP Kinase T180/Y182: 1.011
  fold change: p53: 0.997
  fold change: p53 S15: 0.990
  fold change: p70S6 Kinase: 0.674
  fold change: p70 S6 Kinase S371: 0.762
  fold change: p70 S6 Kinase T389: 0.773
  fold change: p70 S6 Kinase T412: 0.998
  fold change: p90RSK S380: 1.016
  fold change: p90RSK T359/S363: 0.884
  fold change: pYAP S127: 0.931
[1]
  fold change: AMPK T172*: 0.598
  fold change: AMPK total*: 1.69
  fold change: PKM2 Y105*: 2.13
  fold change: PKM2 total*: 1.01

Source: US20180177749A1, “USE OF CYP EXPRESSION TO DIRECT THERAPEUTIC INTERVENTION IN CANCER” (REGENTS OF THE UNIVERSITY OF MINNESOTA, priority 2016, published 2018)
